Assay results published in patent US20120101147A1, “INHIBITION OF HDAC2 TO PROMOTE MEMORY” (The General Hospital Corporation d/b/a Massachusetts …, priority 2008, published 2012).

Experiments:
[1] = tested on: H4K12 acetylation in HEK293 cells; test: Western blot of H4K12 acetylation in whole HEK293 cells; type: cell-based; conditions: 10 uM, 6 hour
Procedure: Series of compounds incubated with whole HEK293 cells at 10 uM for a 6 hour time period. Western blot showing increased acetylation levels over DMSO controls using anti-acetyl H4K12 antibodies and horseradish peroxidase conjugated secondary antibody along with a luminol-based substrate.
Relative to the DMSO control, multiple selectivity profiles are effective in increasing H4K12 acetylation levels. […] BRD-4097 is the negative control.
Standard western blotting methods were used to measure the effects of HDAC inhibitors on histone acetylation marks in […]. Series of compounds were incubated with whole HEK293 cells at 10 uM for a 6 hour time period. […] Quantification of the raw western data (FIG. 10) established that relative to the DMSO control, multiple selectivity profiles are effective in increasing H4K12 acetylation levels, and that HDAC 1,2 and HDAC 1,2,3 selective inhibitors have robust HDAC activity in whole cells on a specific histone loci (H4K12).

[2] = Pharmacokinetics in plasma and brain after single i.p. dose; type: in vivo; conditions: single 45 mg/kg i.p.; C-57 mice
Procedure: FIG. 17 is the concentration-time curve of BRD-6929 in plasma and brain following single 45 mg/kg i.p. dose in mice.
FIG. 17 represents a summary of the pharmacokinetic data after a single dose of 45 mg/kg BRD-6929 administered systemically via intraperitoneal injection. The concentration time curves for BRD-6929 in the plasma and brain of C-57 mice from 5 min to 24 h are shown.

HDAC1,2 vs. HDAC3 = test: Selectivity for HDAC1,2 vs. HDAC3; type: biochemical
Description: All of the BRD numbered compounds are derived from the ortho-anilide class of compounds.
Two sets of data with 3 independent samples/set are presented. Histograms representing the quantification of westerns are also shown.

tetra-acetylated H4 = test: Western blot of tetra-acetylated H4 in primary striatal cells; type: cell-based, mouse; conditions: relative to DMSO controls
Procedure: (§1) Four compounds were tested including CI-994 (BRD-3696) and SAHA. […] BRD-6929 and BRD-5298 treatment results in a 2-5 fold increase in both marks at 1 and 10 uM.

Class II HDAC enzymes = test: In vitro enzymatic inhibition assay against HDAC isoforms; type: biochemical
Procedure: (§2) The enzymatic inhibitory activity of multiple HDAC inhibitors was assayed against several of the known HDAC isoforms and is shown in FIG. 8. SAHA was included as a reference mixed class I-class II inhibitor. […] All of the BRD numbered compounds are derived from the ortho-anilide class of compounds. Not all compounds from this class are expected to bind the class II HDACs.

HDAC8 = biological target: T1, HDAC8 (Homo sapiens, UniProt Q9BY41); test: as above; type: biochemical
T1 sequence (Q9BY41 1-377): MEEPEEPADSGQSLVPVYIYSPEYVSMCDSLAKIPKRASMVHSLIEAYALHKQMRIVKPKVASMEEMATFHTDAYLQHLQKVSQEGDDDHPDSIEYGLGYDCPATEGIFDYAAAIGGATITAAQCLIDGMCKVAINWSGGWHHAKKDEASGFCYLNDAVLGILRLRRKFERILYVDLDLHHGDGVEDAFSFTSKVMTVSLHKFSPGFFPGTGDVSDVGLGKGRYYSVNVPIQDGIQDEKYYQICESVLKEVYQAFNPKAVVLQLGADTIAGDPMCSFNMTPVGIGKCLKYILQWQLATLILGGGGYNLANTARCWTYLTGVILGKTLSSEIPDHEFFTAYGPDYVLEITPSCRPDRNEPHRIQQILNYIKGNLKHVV
Procedure: as §2

tetra-acetylated H2B [3] = test: Western blot of whole brain after chronic administration: tetra-acetylated H2B; type: in vivo, mice; conditions: every day for 10 days
[4] = tested on: H4K12 acetylation in primary striatal cells; test: Western blot of H4K12 acetylation in primary striatal cells; type: cell-based, mouse; conditions: 1 and 10 uM; relative to DMSO
Description: A. Western blots of primary striatal cells isolated from mouse brain that have been treated with HDAC inhibitors. Two sets of data with 3 independent samples/set. B. Histograms represent the quantification of westerns shown in panel A.
Two sets of data with 3 independent samples/set are presented. Histograms representing the quantification of westerns are also shown. Relative to DMSO controls, BRD-6929 has a significant effect on the acetylation levels of histone locus H4K12. BRD-6929 treatment results in a 5-10 fold increase at 1 and 10 uM. BRD-6929 is an HDAC 1,2 selective compound, and has 200× selectivity for HDAC1,2 vs. HDAC3. […] In this case the data was compared to controls: SAHA and BRD-3696 (CI-994). An HDAC1,2 selective compound is as effective at increasing acetylation as an HDAC1,2,3 inhibitor and a pan inhibitor (i.e. SAHA). Inhibiting HDAC1,2 is sufficient to effect increased acetylation at this histone locus.

tetra-acetylated H2B [5] = test: Western blot of cortex after acute treatment: tetra-acetylated H2B; type: in vivo, mice
Procedure: (§3) The experimental protocol for acute treatment with BRD-6929 and the corresponding effects on histone acetylation in brain specific regions of adult male C57BL/6J mice is shown in FIG. 18. Crude Protein Lysis Protocol for western blot analysis of specific brain sections.
(§4) a. On ice, thaw frozen tissue and immediately homogenize carefully in 250 uL of ice-cold Suspension Buffer.
(§5) b. As soon as possible, add an equal volume of 2×SDS gel-loading buffer, pipetting up and down to mix.
(§6) 2. Place the sample at 95° C. for 5 min.
(§7) 3. Shear viscous chromosomal DNA by smoothly passaging through 23-25 gauge hypodermic needle (2-3×) or by sonicating briefly (Al used the needle method and it worked fine). Avoid foaming/bubbles.
(§8) 4. Centrifuge the sample at 10,000 g for 10 min at room temperature, transferring supernatant to fresh tube.

H2B acetylation = test: Immunofluorescence: H2B acetylation in primary neuronal cell cultures; type: cell-based, mouse; conditions: 1 and 10 uM, 6 h
Procedure: (§9) 1) Compounds were pin transferred from 384-well plates (Abgene) using a 185 nl pin tool using a no touch bottom protocol.
(§10) 1) Media was aspirated using a plate washer (Tecan) protocol that leaves ˜5 ul residual volume and without touching the bottom of plates); or alternatively, wells were gently aspirated to remove media with 12-channel aspirator wand.
(§11) 2) A multichannel pipet or use liquid handling system (e.g. Combi, standard tubing; slow speed) was used to add 75 ul formaldehyde (4% in PBS) and wells incubated 10 min at room temperature.
(§12) 3) Formaldehyde was aspirated and cells rinsed 3 times with 100 ul PBS;
(§13) 4) PBS was aspirated and 100 ul blocking/permeablization buffer (0.1% Triton-X100, 2% BSA, in PBS) added and wells incubate 1 hour at room temperature.
(§14) 5) Blocking buffer was aspirated and 50 ul primary antibody diluted 1:500 in blocking buffer was added and wells incubated overnight at 4 degrees.
(§15) 1) Primary antibody was aspirated and wells rinsed 3 times with 100 ul blocking buffer
(§16) 2) 50 ul of secondary antibody diluted 1:500 and with Hoeschst (1:1000 from 10 mg/mL (16 mM) stock) added and wells incubated 1.5 hours at room temperature covered in foil to prevent photobleaching.
(§17) 3) Wells were rinsed 3 times with 100 ul PBS, and a 100 uls of PBS added and the plates, sealed
(§18) 4) Plates were then read on Acumen/IX Micro

tetra-acetylated H2B [6] = test: Western blot of tetra-acetylated H2B in primary striatal cells; type: cell-based, mouse; conditions: relative to DMSO controls
Procedure: as §1

[7] = tested on: primary neuronal cultures; test: Immunofluorescence: overall cell number in primary neuronal cultures; type: cell-based, mouse; conditions: 1 and 10 uM, 6 h
Procedure: as §9, §10, §11, §12, §13, §14, §15, §16, §17, §18

H2BK5 = test: Western blot of cortex after acute treatment: H2BK5 acetylation; type: in vivo, mice; conditions: cortex after 1 hour
Procedure: as §3, §4, §5, §6, §7, §8

H4K12 acetylation = test: Immunofluorescence: H4K12 acetylation in primary cultures (striatum); type: cell-based, mouse; conditions: 10 uM, 6 h
Procedure: as §9, §10, §11, §12, §13, §14, §15, §16, §17, §18

mice = test: Context-dependent fear conditioning memory test; type: in vivo, mouse; conditions: C57/BL6 WT mice; 45 mg/kg every day for 10 days; foot shock 0.8 mA
Procedure: Fear conditioning tests Context-dependent fear conditioning. Training consists of a 3 min exposure of mice to the conditioning box (context) followed by a foot shock (2 sec, 0.5/0.8/1.0 mA, constant current). The memory test was performed 24 hr later by re-exposing the mice for 3 min into the conditioning context. Freezing, defined as a lack of movement except for heart beat and respiration associated with a crouching posture, was recorded every 10 sec by two trained observers (one was unaware of the experimental conditions) during 3 min (a total of 18 sampling intervals). The number of observations indicating freezing obtained as a mean from both observers was expressed as a percentage of the total number of observations.
Chemical administration Suberoylanilide hydroxamic acid (SAHA) was synthesized as described previously in WO 93/07148 PTC/US92/08454. Sodium butyrate was purchased from Sigma (cat.B5887). SAHA and WT-161 were dissolved in DMSO as stock solutions and diluted in saline just before injection. Sodium butyrate was prepared in saline. Mice received intraperitoneal injection daily with either SAHA or saline for 10 days or 21 days.
C57/BL6 WT mice were injected with vehicle or BRD-6929 for 10 days. On day 11, mice were trained in contextual fear conditioning paradigm (Training consisted of a 3 min exposure of mice to the conditioning box (context, TSE) followed by a foot shock (2 sec, 0.8 mA, constant current). One hour after training, mice were injected with BRD-6929 or vehicle. On day 12, mice were returned to the training box and the freezing behavior were monitored and recorded.

blood-brain barrier penetration [2]	brain AUC [2] [µM]	brain Cmax [2] [nM]	inhibition of Class II HDAC enzymes (Class II HDAC enzymes)	inhibition of HDAC8 (HDAC8)	overall cell number ([7]; primary cultures (cortex and striatum))	overall cell number ([7]; primary neuronal cell cultures)	Structure (SMILES)	H4K12 acetylation levels relative to DMSO control [1]	selectivity for HDAC1,2 vs. HDAC3 (HDAC1,2 vs. HDAC3) [×]	tetra-acetylated H4 (tetra-acetylated H4)	tetra-acetylated H2B relative to the vehicle control (tetra-acetylated H2B [3])	increase in acetylation of histone locus H4K12 [4]	increase in H2B (tetra) histone acetylation in cortex (tetra-acetylated H2B [5]; acute treatment, normalized to histone H3)	levels of tetra-acetylated H2B in the cortex (tetra-acetylated H2B [5]; single systemic dose, adult male C57BL/6J mice)	increase in H2B tetra-acetylation (H2B acetylation; primary cultures (striatum))	H2B acetylation (H2B acetylation; primary neuronal cell cultures)	tetra-acetylated H2B (tetra-acetylated H2B [6])	increase in acetylation levels for H2BK5 (H2BK5)	H4K12 acetylation (H4K12 acetylation)	memory in contextual fear conditioning paradigm (% time freezing) (mice)
							Nc1ccc(-c2cccs2)cc1NC(=O)c1ccc(/C=C/C(=O)NCCc2ccccn2)cc1 [BRD-9853, (E)-N-(2-amino-5-(thiophen-2-yl)phenyl)-4-(3-oxo-3-(2-(pyridin-2-yl)ethylamino)prop-1-enyl)benzamide]	minimal activity												
crosses the blood-brain barrier	3.9	830	does not inhibit	does not inhibit	does not cause an increase or decrease	do not cause an increase or decrease	CC(=O)Nc1ccc(C(=O)Nc2cc(-c3cccs3)ccc2N)cc1 [BRD-6929, 4-acetamido-N-(2-amino-5-(thiophen-2-yl)phenyl)benzamide]		200	significantly increased	increase	5-10 fold	1.5-2 fold	significant increase	2-3 fold	significant increase	trend toward increasing	1.5-2 fold	increase	improved
